# Peptide text beside a SMILES is read from it. * marks the point of attachment. Decanoyl = CCCCCCCCCC(=O)*; CH2Cl = ClC*
# Legend:
# [1] = tested on: β-DG; assay: Metalloprotease-dependent shedding and cleavage of dystroglycan in cultured cells (immunoblot); type: cell-based; details: incubation of the cells with inhibitor
# Experimental: FIG. 6A-B depicts a modification of dystroglycan by metalloprotease activity. (A) Structure of α-DG and β-DG. α-DG associates non-covalently with β-DG, which spans the plasma membrane. O-linked glycosylation is shown as a chain of circles of varying length, whereas N-linked glycosylation is shown as branches. (B) Immunoblot analysis of α-DG and β-DG levels in cell lines cultured in the presence or absence of the MP inhibitor BB-2516. Cells were cultured in serum-free medium for two days with or without BB-2516 and then total cellular proteins were extracted and subjected to immunoblot analysis of α-DG and β-DG.
# To confirm that metalloprotease activity is indeed blocked by the GM6001, the cleavage of known molecules is monitored. Using identically treated cell populations, proteins are extracted and analyzed by immunoblot. These controls include detecting the cleavage of the β-DG subunit, which is evidenced by a shift in the molecular mass of this protein from 43 kDa to 31 kDa in MDA-MB-231 cells using an antibody binding the β-DG cytoplasmic domain (see FIG. 6).
# For example, metalloprotease cleavage events are responsible for the shedding of β-DG from the cell surface, and for direct cleavage of the extracellular domain of β-DG, which is detected by the reduction in the molecular mass of β-DG from 43 kD to 31 kD. Both the shedding of β-DG, and the cleavage of β-DG are blocked by the incubation of the cells with the broad-spectrum MMP inhibitors GM6001 or BB2516. Detection of the cleaved form of p-DG can be completely eliminated after just 24 hours exposure to the MMP inhibitor.
# [2] = tested on: α-DG; assay: Immunoprecipitation of the DG complex after furin inhibitor treatment; type: cell-based; details: EpH4, MDA-MB-231 and MDA-MB-468 cells
# [3] = tested on: known metalloproteases; details: 50 μM; cited from earlier work
# [4] = tested on: BT474 and MDA-MB-231 cells; details: 50 μM, extended periods of time; cited from earlier work
structure (smiles),measurement,setting,value
CNC(=O)[C@@H](NC(=O)[C@H](CC(C)C)[C@H](O)C(=O)NO)C(C)(C)C [BB2516],cleavage of β-DG (43 kD to 31 kD),[1],blocked
same,shedding of β-DG from the cell surface,[1],blocked
CCCCCCCCCC(=O)N[C@@H](CCCN=C(N)N)C(=O)N[C@H](C(=O)N[C@@H](CCCCN)C(=O)N[C@@H](CCCN=C(N)N)C(=O)CCl)C(C)C [CMK] (Decanoyl-RVKR-CH2Cl),α-DG band position,[2],shifted upward in all cells
CNC(=O)[C@H](Cc1c[nH]c2ccccc12)NC(=O)[C@@H](CC(=O)NO)CC(C)C [GM6001],block of activity of known metalloproteases,[3],more than sufficient to block the activity of known metalloproteases
same,cleavage of β-DG (43 kD to 31 kD),[1],blocked
same,shedding of β-DG from the cell surface,[1],blocked
same,cell viability on extended exposure,[4],without loss of cell viability
